Experimental data: patent publication US9938281B2 (Merck Sharp & Dohme Corp., priority 2012, dated 2018)

Columns and labels:
PI3K-delta = molecular target: T1, PI3K-delta (Homo sapiens, UniProt O00329); experiment: HTRF PI3K biochemical assay, delta isoform; details: form screened (neutral or TFA salt) given, read-out: PI3Kdelta IC50
T1 construct: purchased Upstate; Millipore 14-604

PI3K-alpha = molecular target: T2, PI3K-alpha (Homo sapiens, UniProt P42336); experiment: HTRF PI3K biochemical assay, alpha isoform; details: ratio PI3K-alpha IC50 value / PI3K-delta IC50 value
T2 construct: purchased Upstate; Millipore 14-602
T2 sequence (P42336 whole entry, canonical isoform): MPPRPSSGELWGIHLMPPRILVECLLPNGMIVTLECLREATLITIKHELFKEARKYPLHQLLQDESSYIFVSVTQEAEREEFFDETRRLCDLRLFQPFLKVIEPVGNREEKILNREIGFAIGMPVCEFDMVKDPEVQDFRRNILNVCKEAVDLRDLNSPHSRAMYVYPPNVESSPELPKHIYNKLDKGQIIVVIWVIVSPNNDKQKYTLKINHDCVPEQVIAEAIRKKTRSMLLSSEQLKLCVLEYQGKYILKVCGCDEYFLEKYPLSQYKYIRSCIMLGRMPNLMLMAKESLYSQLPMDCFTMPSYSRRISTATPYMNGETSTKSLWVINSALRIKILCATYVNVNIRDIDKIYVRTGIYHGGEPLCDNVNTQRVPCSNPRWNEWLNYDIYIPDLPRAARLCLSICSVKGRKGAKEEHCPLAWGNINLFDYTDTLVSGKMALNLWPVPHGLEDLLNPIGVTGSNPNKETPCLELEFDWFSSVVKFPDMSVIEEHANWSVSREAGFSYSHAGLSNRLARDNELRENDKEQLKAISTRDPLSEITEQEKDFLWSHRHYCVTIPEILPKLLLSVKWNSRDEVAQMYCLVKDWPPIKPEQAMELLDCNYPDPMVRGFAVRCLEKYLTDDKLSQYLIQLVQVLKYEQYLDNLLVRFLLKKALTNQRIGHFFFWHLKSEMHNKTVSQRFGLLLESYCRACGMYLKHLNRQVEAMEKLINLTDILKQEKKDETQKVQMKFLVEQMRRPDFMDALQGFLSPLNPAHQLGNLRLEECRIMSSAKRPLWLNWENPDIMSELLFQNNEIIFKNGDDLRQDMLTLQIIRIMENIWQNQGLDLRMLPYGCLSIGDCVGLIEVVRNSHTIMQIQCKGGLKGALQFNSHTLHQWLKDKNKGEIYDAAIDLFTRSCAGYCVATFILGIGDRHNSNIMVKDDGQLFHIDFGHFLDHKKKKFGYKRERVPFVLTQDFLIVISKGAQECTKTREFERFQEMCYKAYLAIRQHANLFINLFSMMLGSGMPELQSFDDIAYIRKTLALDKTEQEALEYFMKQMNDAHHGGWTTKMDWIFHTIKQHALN
T2 sequence (P27986 whole entry partner, canonical isoform): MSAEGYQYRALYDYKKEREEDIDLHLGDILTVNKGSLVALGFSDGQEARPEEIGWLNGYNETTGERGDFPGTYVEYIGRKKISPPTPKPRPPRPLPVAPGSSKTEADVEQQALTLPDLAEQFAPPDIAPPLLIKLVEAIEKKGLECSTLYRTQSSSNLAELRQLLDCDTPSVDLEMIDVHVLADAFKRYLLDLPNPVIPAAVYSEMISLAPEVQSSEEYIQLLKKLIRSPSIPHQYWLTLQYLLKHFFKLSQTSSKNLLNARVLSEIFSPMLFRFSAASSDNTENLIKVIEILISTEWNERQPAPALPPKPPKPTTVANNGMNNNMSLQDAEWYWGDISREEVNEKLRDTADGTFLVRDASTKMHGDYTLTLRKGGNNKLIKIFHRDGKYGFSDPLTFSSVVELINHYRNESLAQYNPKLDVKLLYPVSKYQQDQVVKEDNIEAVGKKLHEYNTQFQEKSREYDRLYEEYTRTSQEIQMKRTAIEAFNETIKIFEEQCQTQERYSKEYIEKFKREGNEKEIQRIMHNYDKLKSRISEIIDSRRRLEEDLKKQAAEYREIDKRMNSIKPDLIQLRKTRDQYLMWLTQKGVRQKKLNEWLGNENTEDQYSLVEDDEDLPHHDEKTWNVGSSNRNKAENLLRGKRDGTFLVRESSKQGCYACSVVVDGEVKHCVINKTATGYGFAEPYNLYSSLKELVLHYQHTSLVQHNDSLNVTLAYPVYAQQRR

T1 sequence (O00329 whole entry, canonical isoform): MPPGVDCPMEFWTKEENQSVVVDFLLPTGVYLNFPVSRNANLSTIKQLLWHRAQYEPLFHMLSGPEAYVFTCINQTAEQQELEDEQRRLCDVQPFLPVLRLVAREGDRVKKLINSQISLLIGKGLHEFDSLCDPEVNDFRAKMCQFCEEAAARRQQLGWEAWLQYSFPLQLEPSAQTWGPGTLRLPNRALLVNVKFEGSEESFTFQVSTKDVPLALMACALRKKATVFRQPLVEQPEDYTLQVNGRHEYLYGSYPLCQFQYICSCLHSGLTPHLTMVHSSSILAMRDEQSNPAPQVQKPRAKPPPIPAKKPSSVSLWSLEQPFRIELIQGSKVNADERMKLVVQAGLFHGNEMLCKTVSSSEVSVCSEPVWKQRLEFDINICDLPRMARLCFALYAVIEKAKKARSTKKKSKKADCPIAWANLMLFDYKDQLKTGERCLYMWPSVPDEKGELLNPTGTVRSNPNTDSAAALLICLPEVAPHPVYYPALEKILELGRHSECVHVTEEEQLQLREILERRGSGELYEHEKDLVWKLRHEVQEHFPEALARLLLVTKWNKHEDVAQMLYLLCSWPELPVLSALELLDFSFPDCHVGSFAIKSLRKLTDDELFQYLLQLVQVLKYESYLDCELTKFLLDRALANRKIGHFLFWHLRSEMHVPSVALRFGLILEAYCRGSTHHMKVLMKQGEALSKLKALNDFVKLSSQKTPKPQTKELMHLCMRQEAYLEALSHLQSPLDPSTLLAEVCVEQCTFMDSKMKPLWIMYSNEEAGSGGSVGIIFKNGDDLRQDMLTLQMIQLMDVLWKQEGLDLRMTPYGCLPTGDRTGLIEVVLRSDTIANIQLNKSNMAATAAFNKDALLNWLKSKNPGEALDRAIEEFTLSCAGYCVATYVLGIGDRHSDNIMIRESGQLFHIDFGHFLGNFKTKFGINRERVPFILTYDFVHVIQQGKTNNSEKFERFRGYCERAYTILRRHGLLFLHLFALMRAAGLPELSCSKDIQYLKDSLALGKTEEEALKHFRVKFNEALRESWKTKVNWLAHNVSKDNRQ
T1 sequence (P27986 whole entry partner, canonical isoform): as the sequence (P27986 whole entry partner, canonical isoform) above

SMILES | IC50 (PI3K-delta) [µM] | Selectivity versus PI3Kalpha (PI3K-alpha)
CCn1c(-c2cnc(C)nc2)nc2c(N[C@H]3C[C@H](C(=O)NC)N(C(=O)C4CC4)C3)ncnc21 [Compound 15-3, (4S)-1-(cyclopropylcarbonyl)-4-{[9-ethyl-8-(2-methylpyrimidin-5-yl)-9H-purin-6-yl]amino}-N-methyl-D-prolinamide] | 0.012 | >10
CCn1c(-c2cnc(C)nc2)nc2c(N[C@H]3C[C@H](C(=O)NC(C)C)N(C(=O)C4CC4)C3)ncnc21 [Compound 15-4, (4S)-1-(cyclopropylcarbonyl)-4-{[9-ethyl-8-(2-methylpyrimidin-5-yl)-9H-purin-6-yl]amino}-N-(1-methylethyl)-D-prolinamide] | 0.015 | >10
CCn1c(-c2cnc(C)nc2)nc2c(N[C@H]3C[C@H](C(N)=O)N(C(=O)C4CC4)C3)ncnc21 [Compound 15-5, (4S)-1-(cyclopropylcarbonyl)-4-{[9-ethyl-8-(2-methylpyrimidin-5-yl)-9H-purin-6-yl]amino}-D-prolinamide] | 0.003 | >10
CCn1c(-c2cnc(C)nc2)nc2c(N[C@H]3C[C@H](C(=O)N[C@@H](C)C(C)C)N(C(=O)C4CC4)C3)ncnc21 [Compound 15-6, (4S)-1-(cyclopropylcarbonyl)-N-[(1S)-1,2-dimethylpropyl]-4-{[9-ethyl-8-(2-methylpyrimidin-5-yl)-9H-purin-6-yl]amino}-D-prolinamide] | 0.02 | >10
CCn1c(-c2cnc(C)nc2)nc2c(N[C@H]3C[C@H](C(=O)NCCO)N(C(=O)C4CC4)C3)ncnc21 [Compound 15-7, (4S)-1-(cyclopropylcarbonyl)-4-{[9-ethyl-8-(2-methylpyrimidin-5-yl)-9H-purin-6-yl]amino}-N-(2-hydroxyethyl)-D-prolinamide] | 0.0058 | >10
CCn1c(-c2cnc(C)nc2)nc2c(N[C@H]3C[C@H](C(=O)NCCN(C)C)N(C(=O)C4CC4)C3)ncnc21 [Compound 15-8, (4S)-1-(cyclopropylcarbonyl)-N-[2-(dimethylamino)ethyl]-4-{[9-ethyl-8-(2-methylpyrimidin-5-yl)-9H-purin-6-yl]amino}-D-prolinamide] | 0.0088 | >10
CCn1c(-c2cnc(C)nc2)nc2c(N[C@H]3C[C@@H](C(=O)NC)N(C(=O)C4CC4)C3)ncnc21 [Compound 15-9, (4S)-1-(cyclopropylcarbonyl)-4-{[9-ethyl-8-(2-methylpyrimidin-5-yl)-9H-purin-6-yl]amino}-N-methyl-L-prolinamide] | 0.046 | >10
CCn1c(-c2cnc(C)nc2)nc2c(N[C@H]3C[C@@H](C(N)=O)N(C(=O)C4CC4)C3)ncnc21 [Compound 15-10, (4S)-1-(cyclopropylcarbonyl)-4-{[9-ethyl-8-(2-methylpyrimidin-5-yl)-9H-purin-6-yl]amino}-L-prolinamide] | 0.06 | >10
CCn1c(-c2cnc(C)nc2)nc2c(N[C@H]3C[C@H](C(N)=O)N(c4ccccn4)C3)ncnc21 [Compound 15-11, (4S)-4-{[9-ethyl-8-(2-methylpyrimidin-5-yl)-9H-purin-6-yl]amino}-1-pyridin-2-yl-D-prolinamide] | 0.0077 | >10
CCn1c(-c2cnc(C)nc2)nc2c(N[C@H]3C[C@H](C(=O)NCCO)N(c4ccccn4)C3)ncnc21 [Compound 15-12, (4S)-4-{[9-ethyl-8-(2-methylpyrimidin-5-yl)-9H-purin-6-yl]amino}-N-(2-hydroxyethyl)-1-pyridin-2-yl-D-prolinamide] | 0.0046 | >10
CCn1c(-c2cnc(C)nc2)nc2c(N[C@H]3CN[C@@H](C(=O)N(C)C4CC4)C3)ncnc21 [Compound 15-13, (4R)-N-cyclopropyl-4-{[9-ethyl-8-(2-methylpyrimidin-5-yl)-9H-purin-6-yl]amino}-N-methyl-D-prolinamide] | 0.029 | >10
CCn1c(-c2cnc(C)nc2)nc2c(N[C@H]3C[C@H](c4nnc(C)o4)N(C(=O)C4CC4)C3)ncnc21 [Compound 15-14, N-[(3S,5R)-1-(cyclopropylcarbonyl)-5-(5-methyl-1,3,4-oxadiazol-2-yl)pyrrolidin-3-yl]-9-ethyl-8-(2-methylpyrimidin-5-yl)-9H-purin-6-amine] | 0.039 | >10

The remaining lines, values ahead:

IC50 (PI3K-delta) [µM] | Selectivity versus PI3Kalpha (PI3K-alpha) | SMILES
0.0019 | >10 | CCn1c(C#Cc2ccccc2)nc2c(N[C@H]3CCN(C(=O)C4CC4)C3)ncnc21 [Compound 16-1, N-[(3S)-1-(cyclopropylcarbonyl)pyrrolidin-3-yl]-9-ethyl-8-(phenylethynyl)-9H-purin-6-amine]
0.02 | >10 | CCn1c(C#Cc2cncnc2)nc2c(N[C@H]3CCN(C(=O)C4CC4)C3)ncnc21 [Compound 16-2, N-[(3S)-1-(cyclopropylcarbonyl)pyrrolidin-3-yl]-9-ethyl-8-(pyrimidin-5-ylethynyl)-9H-purin-6-amine]
0.063 | >10 | CCn1c(C#CCOC)nc2c(N[C@H]3CCN(C(=O)C4CC4)C3)ncnc21 [Compound 16-3, N-[(3S)-1-(cyclopropylcarbonyl)pyrrolidin-3-yl]-9-ethyl-8-(3-methoxyprop-1-yn-1-yl)-9H-purin-6-amine]
0.048 | >10 | CCn1c(C#CCO)nc2c(N[C@H]3CCN(C(=O)C4CC4)C3)ncnc21 [Compound 16-4, 3-(6-{[(3S)-1-(cyclopropylcarbonyl)pyrrolidin-3-yl]amino}-9-ethyl-9H-purin-8-yl)prop-2-yn-1-ol]
